From a melting point compilation (Tetko et al.; mined from patent text by program, amines drawn as free bases though some values may be those of a salt)

melting point | Compound
195 to 196 °C | COc1cc(Cn2cnc3c(-c4ccco4)ncnc32)cc(OC)c1OC
235 to 237 °C | CNC(=O)c1ccccc1Nc1nc(Nc2cc3c(cc2OC)N(C)C(=O)OCC3)ncc1Cl
129 °C | CN(CCCN1CCC(=C2c3ccccc3C=Cc3ccccc32)CC1)c1ncccn1
196 to 205 °C | CCCCC(=O)c1c(C(C)(C)C)cc(C=[N+]([O-])C(C)(C)C)cc1C(C)(C)C
182 to 184 °C | CON=C(Cl)c1ccccc1S(=O)(=O)NC(=O)Nc1nc(C)nc(OC)n1
167 to 169 °C | COc1cc2c(c3c1OC(C)(C)C3)C(c1cccc(-c3ccc4ccccc4n3)c1)=NC(C)(C)C2
136 to 137 °C | COc1ccc(-c2ccccc2-c2ccc(S(C)(=O)=O)cc2)cc1F
97 to 98 °C | O=C(O)C(=O)c1ccc(OCCOc2ccc(F)cc2)cc1
62 to 67 °C | O=C1Cc2ccccc2N1c1ccsc1
160 to 164 °C | Cc1cc(-c2ccccc2)n2nc(N3CCN(Cc4ccccc4)CC3)c(C#N)c2n1
75 to 77 °C | CCOC(=O)C1C(=O)C=C(OCC)CC1c1ccc(C)cc1 (centres undefined)
73.2 °C | CC(C)CC(C#N)(C#N)Cc1ccc(Cl)cc1
162 to 163 °C | CON=C(C(=O)O)c1csc(NC(=O)OCC(Cl)(Cl)Cl)n1
248 to 250 °C | COc1ccc2cc(C(=O)Oc3ccc(Cl)cn3)c(=O)oc2c1
160 to 162 °C | CC(C)(C)OC(=O)N1C=CN(CC#N)C(=O)[C@@H]1Cc1ccccc1
118 to 120 °C | O=C1CN(c2ccc(F)cc2)CCN1
177 °C | Cc1ccc(Cn2c(NC3CCN(CC#N)CC3)nc3ccccc32)o1
180 to 183 °C | COC(=O)C1=Cc2cc(-c3ccc(F)cc3)ccc2S(=O)(=O)CC1
160 to 161 °C | CCOC(=O)c1cc(NCc2ccccc2)c(Nc2ccccc2)c(S(N)(=O)=O)c1
297 to 299 °C | CCc1c(C2=NN=C(C)Cc3cc4[nH]c(=O)oc4cc32)sc2cccc(F)c12
138 to 140 °C | Cc1ccc(S(=O)(=O)NCC(CC(C)C)NS(=O)(=O)c2ccc(C)cc2)cc1 (centres undefined)
162 to 165 °C | Cc1ccc2c(c1)N(CC(=O)c1ccccc1C)C(=O)C(NC(=O)Nc1cccc(C(=O)O)c1)CN2C(=O)C(C)C (centres undefined)
85 to 86.5 °C | O=c1oc(-c2cccc(C(F)(F)F)c2)ns1
214 °C | N#CC1CCCCC1n1nc(-c2c(-c3ccccc3)nn3ccccc23)ccc1=O (centres undefined)

melting point | Compound
36.5 to 37 °C | CCOC(=O)C(S)C(=S)Cc1ccc(Cl)cc1 (centres undefined)
127 to 129 °C | Cc1cc(CC(=O)O)cc(Cc2nc3c(F)c(F)cc(F)c3s2)c1
190 to 192 °C | C=CCN(CC)c1ccc2[nH]c3cnc(C(=O)OCC)cc3c2c1
316 to 318 °C | COc1ccccc1-n1c(=O)[nH]c2c(C(N)=O)nc(-c3cccc(C#N)c3)nc21
154 to 157 °C | CC(C)(C)CCNC(=O)c1ccc(C#N)cc1
166 to 167 °C | N#Cc1cccc(NC(=O)CN2CCN(c3ncccc3C#N)CC2)c1
184 to 186 °C | CCOc1cc(Cc2cnc(N)nc2N)cc2c1OC(C)(C)C=C2
80 to 85 °C | CN(C)CCNC(=O)c1ccccc1-c1nnc(CSCCOc2ccccc2)o1
284 °C | Cc1ccc(N2C(=O)C(O)=C(C(=O)c3ccc(C(C)C)cc3)C2c2ccc(-n3cncn3)cc2)nn1 (centres undefined)
126 to 127 °C | Cc1oc(Cl)cc1C(=O)O
255 to 257 °C | CC(C)C1(C)N=C(c2ncc(O)cc2C(=O)O)NC1=O (centres undefined)
111 to 117 °C | COc1ccc(C(=O)Cc2ccncc2)c2c1OCC2C (centres undefined)
213 to 214 °C | NS(=O)(=O)c1cc(CO)cc(NCc2ccccc2)c1S(=O)c1ccccc1 (centres undefined)
118 °C | CC[C@H](COC)n1cc(Br)nc(N2CCc3cc(Br)cc(Cl)c32)c1=O
204 to 206 °C | N#Cc1cnc2scc(Br)c2c1Br
150 °C | CC#CCOc1ccc(S(=O)(=O)NC[C@@H](C(=O)NO)N2CCN(S(C)(=O)=O)CC2)cc1
185 to 187 °C | COC(=O)[C@H](Cc1ccc(NC(=O)c2cc(C#N)ccc2Cl)cc1)NC(=O)OC(C)(C)C
192 °C | Nc1nc(Cl)cc(Oc2ccc3[nH]ccc3c2)n1
115 to 116 °C | CCC(CC)n1nc(-c2ccc(OC)cc2OC)c2cccc(C(F)(F)F)c21
82 to 84 °C | COc1ccc2c(c1)C(C(=O)N(Cc1ccc(N(C)C)cc1)c1ccc(C(C)C)cc1)CCO2 (centres undefined)
149 to 151 °C | CCCc1nc2c(N)nc3ccccc3c2n1CCCCCC(=O)N1CCOCC1
151 to 159 °C | O=C(O)Cn1cc(Cc2cccc(OCc3ccc4ccccc4n3)c2)c2ccccc21
184 to 186 °C | COc1ccc(S(=O)(=O)N(Cc2ccccc2)c2c(C(=O)NO)cnc3c2c(C)nn3C)cc1

The remaining lines, values behind:

Compound | melting point
O=c1ccoc(C(O)c2cccc(F)c2)c1OCc1ccccc1 (centres undefined) | 95 to 96 °C
CC(C)(C)C(NC(=O)Cc1ccc(C#N)cc1)NC(=NC#N)Nc1cccc2ncccc12 (centres undefined) | 194 to 196 °C
COc1ccc(C2CCNCC2)cc1OC | 98 to 100 °C
COc1cc(C(=O)N(C(C)C)C2CCCCC2)ccc1Cn1cccc2nc(-c3cccnc3)nc1-2 | 185 to 188 °C
CCCC(=O)Oc1cc(-c2nc3cc(F)ccc3s2)ccc1OC | 125 °C
COc1ccc(S(=O)(=O)Nc2ncccc2/C=C/c2ccccc2)cc1 | 152 to 155 °C
CC1(C)N=C(c2ccccc2F)c2cc([N+](=O)[O-])cc(Cl)c2NC1=O | 142 to 143 °C
CC(C)c1cccc(C(C)C)c1-n1nnn(C(C)C)c1=O | 60 to 62 °C
CCc1cc(C#N)cc2c(NCc3ccc(OC)c(Cl)c3)c(C(=O)Oc3c(F)c(F)c(F)c(F)c3F)cnc12 | 169 to 170 °C
CCNc1nc(Cc2ccc(OC)c(OC)c2)nc2sc(C#N)c(C)c12 | 125 to 126 °C
CN(C)c1ccc(CNC(=O)CNC(=O)Nc2ccc(C(=N)N)cc2)cc1 | 209 to 214 °C
Cc1cc(N)c(Br)c(C)c1C | 69 °C
CC(=O)OCCNc1nnc(-c2ccccc2)cc1C | 127 °C
CC(C)C[C@H](NC(=O)c1ccc(C(=N)N)cc1)C(=O)N1CCc2nn(CC(=O)O)cc2C1 | 165 to 169 °C
CCOCc1nc2c(N)nc3c(c2n1NCCCNC(C)=O)CCCC3 | 198 to 200 °C
CC1(C)CCC(C#N)(Cc2ccc(Cl)cc2)C1=O (centres undefined) | 101 to 103 °C
CCOC(=O)Nc1ccc(OC(=O)NC)cc1C | 153 to 155 °C
N#Cc1ccc2c(c1)C(=O)c1ccccc1OC2 | 116 to 127 °C
Oc1ccc(-c2ccc3c(Br)c(O)ccc3c2)cc1 | 208 to 210 °C
CC(=O)OC1CCC2(C)C(=CCC3C2CCC2(C)C(OC(C)=O)CCC32)C1 (centres undefined) | 163 to 165 °C
CC(C)c1cc2c(cc1C(CC(=O)O)c1ccccc1)OCO2 (centres undefined) | 114 °C
CCCCC[C@H]1CC[C@H](c2ccc(-c3ccc(C#N)cc3)cc2)CC1 | 93 °C
O=C(c1ccc(C(=O)N2CCC[C@@H]3CCCC[C@H]32)cc1)N1CCCCC1 (relative stereo) | 136 to 137 °C
COc1cc2ncc(C#N)c(Nc3ccc(C)cc3)c2cc1OC | 128 to 130 °C
Cc1nc(C(C)O)cn1Cc1ccccc1 (centres undefined) | 162 to 168 °C
Oc1cc(O)c2cc(-c3cc(F)cc(F)c3)oc2c1 | 208 to 209 °C

Compound | melting point
COc1ccc(CN(C)CCc2ccc(NC(=O)c3cccc4c(=O)c5cccc(C)c5[nH]c34)cc2)cc1OC | 119 °C
CC(=O)OCC(=O)C12OCOC1CC1C3CCC4=CC(=O)CCC4(C)C3(F)C(O)CC12C (centres undefined) | 264 to 266 °C
N#Cc1ccc(CN2CCC(=O)C(C(c3ccc(F)cc3)c3ccc(F)cc3)C2)cc1 (centres undefined) | 118 to 120 °C
CCCCCN(CCc1ccccc1)C(=O)NCC(C)Cc1ccncc1 (centres undefined) | 49 to 50 °C
COC(=O)C1CCC2C3CCC4CC5OC5CC4(C)C3C(NC(=O)OCC(Cl)(Cl)Cl)CC12C (centres undefined) | 153 to 155 °C
CCOC(=O)c1c(-c2ccccc2)n(C)n(-c2ccc(C#N)cc2)c1=O | 218 to 220 °C
Clc1nc(Nc2ccc(OCc3ccccc3)c(Cl)c2)nc(NC2CCCCCC2)n1 | 110 °C
COc1cc2c(Nc3ccc(Cl)cc3F)ncnc2cc1O | 141 to 143 °C
O=C(c1cccs1)c1cnn2c(-c3cccc(NC(=S)Nc4cccc(-c5ccnc6c(C(=O)c7cccs7)cnn56)c4)c3)ccnc12 | 151 to 153 °C
Cc1cc(C)c2c(c1)SCCC2=NO | 170 to 174 °C
C=CCOC(=O)c1ccc(CC(=O)OC(C)(C)C)cc1 | 68 to 69 °C
O=C1NS(=O)(=O)c2cccc(O)c21 | 228 °C
CCOC(=O)c1c(Sc2ccccc2)cc(C(F)(F)F)nc1C(F)(F)F | 58 to 61 °C
Cc1nc2c(N)nc3ccccc3c2n1CC1(O)CCC1 | > 250 °C
O=C(c1cccc2ccccc12)P1(=O)Oc2ccccc2-c2ccccc21 (centres undefined) | 149 to 151 °C
Cc1ccc2c(=O)nc(-c3ccccn3)sc2c1 | 225 °C
CC(C)(O)c1cnn2c(-c3ccc(F)c(-c4ccncc4)c3)cnc2n1 | 233 to 237 °C
CCCCOC(=O)C(NC(=O)OCC(Cl)(Cl)Cl)n1cnc2ncncc21 (centres undefined) | 114 to 116 °C
CCCc1nc2c(N)nc3ccccc3c2n1CCCC(C)N(OC)C(C)=O (centres undefined) | 140 to 142 °C
CCOC(=O)c1cn(Cc2cccnc2)nc1OCc1cccnc1 | 120 to 121 °C
CCSc1[nH]c2cccc3c2c1CC1C3C=C(C)CN1C (centres undefined) | 168 to 169 °C
CC(=O)NCCc1ccc(C(=O)c2cccc(F)c2)cc1 | 78 °C
CC(C)(C)Sc1c(CC(C)(C)C(=O)O)n(Cc2ccc(Cl)cc2)c2ccc(OCc3ccc4ccccc4c3)cc12 | 213 to 214 °C
CNC(=O)C1CCN(S(=O)(=O)c2ccc(Cl)c(COc3cccc4c(-n5ccnc5)cc(C)nc34)c2Cl)C1 (centres undefined) | 108 °C
COc1cc(C=CCn2cncn2)ccc1OCc1ccccc1 | 70 to 72 °C
Clc1ccc2nc3c(nc2c1)-c1cccc2cccc-3c12 | 224 to 225 °C
